Experimental data taken from PubChem BioAssay AID272 (DTP/NCI, 2004).
“And” between values parts separate entries of the source, which are not always exact repeats. Identical values can stand only once. Records with an inconclusive call do not appear.

Test system: Lewis lung carcinoma i.m., BDF1 mice, T/C %
Assay: NCI In Vivo Anticancer Drug Screen. Data for tumor model Lewis Lung Carcinoma (intramuscular) in B6D2F1 (BDF1) mice
Conditions: schedule: Q01DX011 (ip)
Protocol: The antitumor activity of compounds was measured in mice bearing transplantable tumors. Survival or tumor size were measured and the results are expressed as the measurement made in the treated group (T) divided by the measurement made in the vehicle treated control group (C). The tumor model used in this assay is Lewis Lung Carcinoma (intramuscular) in B6D2F1 (BDF1) mice

[1] = endpoint: mean tumor weight (est.), dose: 5.0 mg/kg/injection, vehicle: saline, higher = larger tumour
[2] = endpoint: median survival time, dose: 5.0 mg/kg/injection, vehicle: saline, higher = longer survival
[3] = endpoint: mean tumor weight (est.), dose: 100.0 mg/kg/injection, vehicle: saline with Tween-80, higher = larger tumour
[4] = endpoint: median survival time, dose: 100.0 mg/kg/injection, vehicle: saline with Tween-80, higher = longer survival

Structure (SMILES): CC(=O)Nc1cc(F)c([N+](=O)[O-])cc1[N+](=O)[O-]
- T/C (endpoint: median survival time, dose: 1.25 mg/kg/injection, vehicle: saline with Tween-80, higher = longer survival): 108 % of control
- T/C (endpoint: median survival time, dose: 2.5 mg/kg/injection, vehicle: saline with Tween-80, higher = longer survival): 104 % of control
- T/C (endpoint: median survival time, dose: 5.0 mg/kg/injection, vehicle: saline with Tween-80, higher = longer survival): 95 % of control
- T/C (endpoint: median survival time, dose: 10.0 mg/kg/injection, vehicle: saline with Tween-80, higher = longer survival): 113 % of control

Structure (SMILES): O=C1C=C(N2CC2)c2ccccc2C1=O
- T/C [1]: 74 % of control
- T/C (endpoint: mean tumor weight (est.), dose: 10.0 mg/kg/injection, vehicle: saline, higher = larger tumour): 58 % of control
- T/C [2]: 100 % of control
- T/C (endpoint: median survival time, dose: 10.0 mg/kg/injection, vehicle: saline, higher = longer survival): 100 % of control

Structure (SMILES): CC(=O)OC1CC(OC2C(O)CC(OC3C(O)CC(OC4CCC5(C)C(CCC6C5CCC5(C)C(C7=CC(=O)OC7)C(O)CC65O)C4)OC3C)OC2C)OC(C)C1OC1OC(CO)C(O)C(O)C1O (stereo not drawn)
- T/C (endpoint: median survival time, dose: 3.0 mg/kg/injection, vehicle: saline, higher = longer survival): 106 % of control
- T/C (endpoint: median survival time, dose: 6.0 mg/kg/injection, vehicle: saline, higher = longer survival): 110 % of control
- T/C (endpoint: median survival time, dose: 12.0 mg/kg/injection, vehicle: saline, higher = longer survival): 102 % of control
- T/C (endpoint: median survival time, dose: 24.0 mg/kg/injection, vehicle: saline, higher = longer survival): 104 % of control
- T/C (endpoint: median survival time, dose: 48.0 mg/kg/injection, vehicle: saline, higher = longer survival): 102 % of control

Structure (SMILES): FC(F)c1nc2nc(Cl)c(Cl)nc2[nH]1
- T/C (endpoint: median survival time, dose: 4.0 mg/kg/injection, vehicle: saline, higher = longer survival): 92 % of control
- T/C (endpoint: median survival time, dose: 64.0 mg/kg/injection, vehicle: saline, higher = longer survival): 96 % of control

Structure (SMILES): NC1CONC1=O (stereo not drawn)
- T/C (endpoint: mean tumor weight (est.), dose: 50.0 mg/kg/injection, vehicle: saline, higher = larger tumour): 95 % of control
- T/C (endpoint: mean tumor weight (est.), dose: 100.0 mg/kg/injection, vehicle: saline, higher = larger tumour): 93 % of control
- T/C (endpoint: mean tumor weight (est.), dose: 200.0 mg/kg/injection, vehicle: saline, higher = larger tumour): 84 % of control
- T/C (endpoint: mean tumor weight (est.), dose: 400.0 mg/kg/injection, vehicle: saline, higher = larger tumour): 76 % of control
- T/C (endpoint: median survival time, dose: 50.0 mg/kg/injection, vehicle: saline, higher = longer survival): 94 % of control
- T/C (endpoint: median survival time, dose: 100.0 mg/kg/injection, vehicle: saline, higher = longer survival): 106 % of control
- T/C (endpoint: median survival time, dose: 200.0 mg/kg/injection, vehicle: saline, higher = longer survival): 106 % of control
- T/C (endpoint: median survival time, dose: 400.0 mg/kg/injection, vehicle: saline, higher = longer survival): 124 % of control

Structure (SMILES): Nc1nc(CCl)nc(Nc2ccccc2)n1
- T/C [3]: 61 % of control
- T/C [4]: 100 % of control

Structure (SMILES): C[C@]12CC[C@H](OC3OC(CO)C(O)C(O)C3O)C[C@H]1CC[C@@H]1[C@@H]2CC[C@]2(C)[C@@H](C3=CCOC3=O)CC[C@]12O (stereo partly drawn)
- T/C (endpoint: median survival time, dose: 0.25 mg/kg/injection, vehicle: saline, higher = longer survival): 110 % of control

Structure (SMILES): COc1cc([C@@H]2c3cc4c(c(O)c3C[C@H]3COC(=O)[C@@H]32)OCO4)cc(OC)c1OC
- T/C (endpoint: mean tumor weight (est.), dose: 0.5 mg/kg/injection, vehicle: Klucel (hydroxypropylcellulose) (HPC), higher = larger tumour): 106 % of control
- T/C (endpoint: mean tumor weight (est.), dose: 2.0 mg/kg/injection, vehicle: Klucel (hydroxypropylcellulose) (HPC), higher = larger tumour): 93 % of control

Structure (SMILES): CC(=N/NC(N)=S)/C(C)=N/NC(N)=S
- T/C [3]: 73 % of control
- T/C (endpoint: mean tumor weight (est.), dose: 200.0 mg/kg/injection, vehicle: saline with Tween-80, higher = larger tumour): 65 % of control
- T/C (endpoint: mean tumor weight (est.), dose: 400.0 mg/kg/injection, vehicle: saline with Tween-80, higher = larger tumour): 42 % of control
- T/C [4]: 93 % of control
- T/C (endpoint: median survival time, dose: 200.0 mg/kg/injection, vehicle: saline with Tween-80, higher = longer survival): 91 % of control
- T/C (endpoint: median survival time, dose: 400.0 mg/kg/injection, vehicle: saline with Tween-80, higher = longer survival): 91 % of control

Structure (SMILES): Nc1nc(=S)c2[nH]cnc2[nH]1
- T/C (endpoint: mean tumor weight, dose: 0.12 mg/kg/injection, vehicle: other, higher = larger tumour): 105 % of control
- T/C (endpoint: mean tumor weight, dose: 0.25 mg/kg/injection, vehicle: other, higher = larger tumour): 93 % of control
- T/C (endpoint: mean tumor weight, dose: 0.5 mg/kg/injection, vehicle: other, higher = larger tumour): 76 % of control
- T/C (endpoint: median survival time, dose: 0.12 mg/kg/injection, vehicle: other, higher = longer survival): 97 % of control and 106 % of control
- T/C (endpoint: median survival time, dose: 0.25 mg/kg/injection, vehicle: other, higher = longer survival): 116 % of control and 121 % of control
- T/C (endpoint: median survival time, dose: 0.5 mg/kg/injection, vehicle: other, higher = longer survival): 116 % of control

Structure (SMILES): Clc1ccc(C(c2ccccc2Cl)C(Cl)Cl)cc1 (stereo not drawn)
- T/C (endpoint: median survival time, dose: 50.0 mg/kg/injection, vehicle: Klucel (hydroxypropylcellulose) (HPC), higher = longer survival): 88 % of control
- T/C (endpoint: median survival time, dose: 100.0 mg/kg/injection, vehicle: Klucel (hydroxypropylcellulose) (HPC), higher = longer survival): 95 % of control

Structure (SMILES): NC(C(=O)O)C(F)C(=O)O (stereo not drawn)
- T/C (endpoint: median survival time, dose: 3.12 mg/kg/injection, vehicle: saline, higher = longer survival): 104 % of control
- T/C (endpoint: median survival time, dose: 6.25 mg/kg/injection, vehicle: saline, higher = longer survival): 98 % of control
- T/C (endpoint: median survival time, dose: 12.5 mg/kg/injection, vehicle: saline, higher = longer survival): 103 % of control

Structure (SMILES): C(=C\c1ccccc1)/C[P+](c1ccccc1)(c1ccccc1)c1ccccc1
- T/C (endpoint: mean tumor weight (est.), dose: 0.6 mg/kg/injection, vehicle: saline, higher = larger tumour): 101 % of control
- T/C (endpoint: mean tumor weight (est.), dose: 1.25 mg/kg/injection, vehicle: saline, higher = larger tumour): 100 % of control
- T/C (endpoint: mean tumor weight (est.), dose: 2.5 mg/kg/injection, vehicle: saline, higher = larger tumour): 105 % of control
- T/C [1]: 93 % of control
- T/C (endpoint: median survival time, dose: 0.6 mg/kg/injection, vehicle: saline, higher = longer survival): 98 % of control
- T/C (endpoint: median survival time, dose: 1.25 mg/kg/injection, vehicle: saline, higher = longer survival): 107 % of control
- T/C (endpoint: median survival time, dose: 2.5 mg/kg/injection, vehicle: saline, higher = longer survival): 98 % of control
- T/C [2]: 100 % of control

Structure (SMILES): C[C@]12CC[C@@H]3c4ccc(O)cc4CC[C@H]3[C@@H]1C[C@@H](O)[C@@H]2O
- T/C (endpoint: mean tumor weight, dose: 3.13 mg/kg/injection, vehicle: saline with Tween-80, higher = larger tumour): 62 % of control
- T/C (endpoint: median survival time, dose: 0.78 mg/kg/injection, vehicle: saline with Tween-80, higher = longer survival): 108 % of control
- T/C (endpoint: median survival time, dose: 1.56 mg/kg/injection, vehicle: saline with Tween-80, higher = longer survival): 98 % of control
- T/C (endpoint: median survival time, dose: 3.12 mg/kg/injection, vehicle: saline with Tween-80, higher = longer survival): 112 % of control
- T/C (endpoint: median survival time, dose: 6.25 mg/kg/injection, vehicle: saline with Tween-80, higher = longer survival): 110 % of control

Structure (SMILES): CC[n+]1c(-c2ccccc2)c2cc(N)ccc2c2ccc(N)cc21
- T/C (endpoint: median survival time, dose: 0.25 mg/kg/injection, vehicle: steriod suspending solution, higher = longer survival): 92 % of control
- T/C (endpoint: median survival time, dose: 0.5 mg/kg/injection, vehicle: steriod suspending solution, higher = longer survival): 107 % of control
- T/C (endpoint: median survival time, dose: 1.0 mg/kg/injection, vehicle: steriod suspending solution, higher = longer survival): 100 % of control
- T/C (endpoint: median survival time, dose: 2.0 mg/kg/injection, vehicle: steriod suspending solution, higher = longer survival): 117 % of control
- T/C (endpoint: median survival time, dose: 4.0 mg/kg/injection, vehicle: steriod suspending solution, higher = longer survival): 96 % of control
- T/C (endpoint: median tumor weight (est.), dose: 0.25 mg/kg/injection, vehicle: steriod suspending solution, higher = larger tumour): 90 % of control
- T/C (endpoint: median tumor weight (est.), dose: 0.5 mg/kg/injection, vehicle: steriod suspending solution, higher = larger tumour): 95 % of control
- T/C (endpoint: median tumor weight (est.), dose: 1.0 mg/kg/injection, vehicle: steriod suspending solution, higher = larger tumour): 90 % of control
- T/C (endpoint: median tumor weight (est.), dose: 2.0 mg/kg/injection, vehicle: steriod suspending solution, higher = larger tumour): 77 % of control
- T/C (endpoint: median tumor weight (est.), dose: 4.0 mg/kg/injection, vehicle: steriod suspending solution, higher = larger tumour): 73 % of control
